This note sets out measurements from ChEMBL document CHEMBL3045868, “Synthesis and antibacterial activities of para-alkoxy phenyl--ketoaldehyde derivatives” (Med Chem Res, 2013).

SMILES strings stand for the structures. Values after ≈ are worked out from the molar mass of the structure shown.

Assay [1] relates to Helicobacter pylori. Nature of the assay: Antibacterial activity against Helicobacter pylori 06-8 assessed as growth inhibition after 16 to 18 hr NCCLS agar dilution method. In kind it is functional.
For assay [2], the system named is Helicobacter pylori. Briefly: Antibacterial activity against Helicobacter pylori 06-7 assessed as growth inhibition after 16 to 18 hr NCCLS agar dilution method. The class given is functional.
Assay [3] has as its system Helicobacter pylori. Nature of the assay: Antibacterial activity against Helicobacter pylori 05-14 assessed as growth inhibition after 16 to 18 hr NCCLS agar dilution method. In kind it is functional.
Assay [4] concerns Helicobacter pylori. Nature of the assay: Antibacterial activity against Helicobacter pylori 05-12 assessed as growth inhibition after 16 to 18 hr NCCLS agar dilution method. In kind it is functional.
Assay [5] concerns Helicobacter pylori. Briefly: Antibacterial activity against Helicobacter pylori 05-9 assessed as growth inhibition after 16 to 18 hr NCCLS agar dilution method. In kind it is functional.
For assay [6], the system named is Helicobacter pylori. Nature of the assay: Antibacterial activity against Helicobacter pylori 05-5 assessed as growth inhibition after 16 to 18 hr NCCLS agar dilution method. In kind it is functional.
Assay [7] concerns Helicobacter pylori. Nature of the assay: Antibacterial activity against Helicobacter pylori 05-4 assessed as growth inhibition after 16 to 18 hr NCCLS agar dilution method. The class given is functional, 05-Apr.
In assay [8] the test system is Helicobacter pylori. Briefly: Antibacterial activity against Helicobacter pylori 05-2 assessed as growth inhibition after 16 to 18 hr NCCLS agar dilution method. In kind it is functional.
The test system of assay [9] is Helicobacter pylori. Nature of the assay: Antibacterial activity against Helicobacter pylori 05-1 assessed as growth inhibition after 16 to 18 hr NCCLS agar dilution method. The class given is functional.
Assay [10] relates to Helicobacter pylori. Briefly: Antibacterial activity against Helicobacter pylori ATCC 11637 assessed as growth inhibition after 16 to 18 hr NCCLS agar dilution method. The class given is functional.
A further assay has as its system Pseudomonas aeruginosa. Briefly: Antibacterial activity against Pseudomonas aeruginosa ATCC 27853 assessed as growth inhibition after 16 to 18 hr NCCLS agar dilution method. The class given is functional.
The test system of another assay is Escherichia coli. Nature of the assay: Antibacterial activity against Escherichia coli ATCC 25922 assessed as growth inhibition after 16 to 18 hr NCCLS agar dilution method. The class given is functional.
A further assay concerns Staphylococcus aureus. Briefly: Antibacterial activity against Staphylococcus aureus ATCC 25923 assessed as growth inhibition after 16 to 18 hr by NCCLS agar dilution method. In kind it is functional.
The subject of assay [11] is Helicobacter pylori. Nature of the assay: Antibacterial activity against Helicobacter pylori 06-6 assessed as growth inhibition after 16 to 18 hr NCCLS agar dilution method. The class given is functional.
Assay [12] relates to Helicobacter pylori. Nature of the assay: Antibacterial activity against Helicobacter pylori 06-5 assessed as growth inhibition after 16 to 18 hr NCCLS agar dilution method. In kind it is functional.
The test system of assay [13] is Helicobacter pylori. Nature of the assay: Antibacterial activity against Helicobacter pylori 06-4 assessed as growth inhibition after 16 to 18 hr NCCLS agar dilution method. The class given is functional.
In assay [14] the test system is Helicobacter pylori. Briefly: Antibacterial activity against Helicobacter pylori 06-3 assessed as growth inhibition after 16 to 18 hr NCCLS agar dilution method. The class given is functional.
The test system of assay [15] is Helicobacter pylori. Nature of the assay: Antibacterial activity against Helicobacter pylori 06-2 assessed as growth inhibition after 16 to 18 hr NCCLS agar dilution method. The class given is functional.
Assay [16] relates to Helicobacter pylori. Briefly: Antibacterial activity against Helicobacter pylori 06-1 assessed as growth inhibition after 16 to 18 hr NCCLS agar dilution method. In kind it is functional.
The test system of assay [17] is Helicobacter pylori. Briefly: Antibacterial activity against Helicobacter pylori 05-3 assessed as growth inhibition after 16 to 18 hr NCCLS agar dilution method. The class given is functional.
The subject of assay [18] is Helicobacter pylori. Nature of the assay: Antibacterial activity against Helicobacter pylori assessed as growth inhibition after 16 to 18 hr NCCLS agar dilution method. The class given is functional.

Regarding `COc1ccc(C(=O)C/C=N/NC(N)=S)cc1`, the MIC with Helicobacter pylori [1] is over 128 µg/mL; in the assay on Helicobacter pylori [2] it was 128 µg/mL (≈ 509 µM); with Helicobacter pylori [3] it was over 128 µg/mL; with Helicobacter pylori [4], over 128 µg/mL; in the assay with Helicobacter pylori [5], over 128 µg/mL; with Helicobacter pylori [6], over 128 µg/mL. In addition, the MIC in the assay on Helicobacter pylori [7] is over 128 µg/mL; with Helicobacter pylori [8], over 128 µg/mL; in the assay on Helicobacter pylori [9], over 128 µg/mL; in the assay with Helicobacter pylori [10] it was over 128 µg/mL; in the assay with Pseudomonas aeruginosa, over 64 µg/mL; in the assay on Escherichia coli, over 64 µg/mL. In addition, the MIC in the assay with Staphylococcus aureus is over 64 µg/mL; with Helicobacter pylori [11] it was 128 µg/mL (≈ 509 µM); in the assay with Helicobacter pylori [12], over 128 µg/mL; in the assay with Helicobacter pylori [13], over 128 µg/mL; in the assay with Helicobacter pylori [14], over 128 µg/mL; in the assay on Helicobacter pylori [15] it was over 128 µg/mL. Besides, the MIC in the assay with Helicobacter pylori [16] and with Helicobacter pylori [17] was over 128 µg/mL each time. Besides, in the assay on Helicobacter pylori [18], the MIC50 is over 128 µg/mL. Moreover, in the assay with Helicobacter pylori [18], the MIC90 is over 128 µg/mL.
On to `COc1ccc(C(=O)C/C=N/NC(N)=O)cc1`, for which the MIC was over 128 µg/mL in the assay on Helicobacter pylori [1]; 128 µg/mL (≈ 544 µM) in the assay with Helicobacter pylori [2]; over 128 µg/mL with Helicobacter pylori [3]; over 128 µg/mL in the assay on Helicobacter pylori [4]; over 128 µg/mL with Helicobacter pylori [5]; over 128 µg/mL with Helicobacter pylori [6]. The MIC in the assay with Helicobacter pylori [7] is over 128 µg/mL; in the assay with Helicobacter pylori [8] it was over 128 µg/mL; with Helicobacter pylori [9], over 128 µg/mL; with Helicobacter pylori [10], over 128 µg/mL; with Pseudomonas aeruginosa, over 64 µg/mL; in the assay with Escherichia coli, over 64 µg/mL. Moreover, the MIC is over 64 µg/mL in the assay on Staphylococcus aureus; 128 µg/mL (≈ 544 µM) in the assay with Helicobacter pylori [11]; over 128 µg/mL with Helicobacter pylori [12]; over 128 µg/mL in the assay on Helicobacter pylori [13]; over 128 µg/mL in the assay on Helicobacter pylori [14]; over 128 µg/mL in the assay on Helicobacter pylori [15]. Moreover, the MIC with Helicobacter pylori [16] and with Helicobacter pylori [17] was over 128 µg/mL throughout. Also, in the assay on Helicobacter pylori [18], the MIC50 is over 128 µg/mL. Also, the MIC90 in the assay with Helicobacter pylori [18] was over 128 µg/mL.
